Test results: ChEMBL document CHEMBL1146327, “Inhibitors of the FEZ-1 metallo-beta-lactamase” (Bioorg Med Chem Lett, 2007)
Active and inactive are the calls of the source. The rule behind the calls is not given here.

Columns and labels:
[1] = (§1) Inhibition of metallo-beta-lactamases FEZ1; set-up: species or system Fluoribacter gormanii
Fluoribacter gormanii [2] = test: as §1; set-up: concentration or dose not given beside the values; conditions: concentration not given here
[3] = Inhibition of metallo-beta-lactamases L1; conditions: for inhibition: concentration not given here
[4] = target: Metallo-beta-lactamase type 2 (Aeromonas hydrophila) (UniProt P26918); test: Inhibition of metallo-beta-lactamases CphA; conditions: for inhibition: concentration not given here
[5] = target: Metallo-beta-lactamase type 2 (Pseudomonas aeruginosa) (UniProt Q7WYA8); test: Inhibition of metallo-beta-lactamases IMP1; conditions: for inhibition: concentration not given here
Bacillus cereus [6] = test: Inhibition of metallo-beta-lactamases Bc2; conditions: for inhibition: concentration not given here
[7] = Inhibition of metallo-beta-lactamases L1 assessed as residual activity at 100 uM
Fluoribacter gormanii [8] = test: Inhibition of metallo-beta-lactamases FEZ1 assessed as residual activity at 100 uM
Bacillus cereus [9] = test: Inhibition of metallo-beta-lactamases Bc2 assessed as residual activity at 100 uM
[10] = target: Metallo-beta-lactamase type 2 (Pseudomonas aeruginosa) (UniProt Q7WYA8); test: Inhibition of metallo-beta-lactamases IMP1 assessed as residual activity at 100 uM
[11] = target: Metallo-beta-lactamase type 2 (Aeromonas hydrophila) (UniProt P26918); test: Inhibition of metallo-beta-lactamases CphA assessed as residual activity at 100 uM

Chain of Metallo-beta-lactamase type 2 (Pseudomonas aeruginosa) (Q7WYA8 whole entry): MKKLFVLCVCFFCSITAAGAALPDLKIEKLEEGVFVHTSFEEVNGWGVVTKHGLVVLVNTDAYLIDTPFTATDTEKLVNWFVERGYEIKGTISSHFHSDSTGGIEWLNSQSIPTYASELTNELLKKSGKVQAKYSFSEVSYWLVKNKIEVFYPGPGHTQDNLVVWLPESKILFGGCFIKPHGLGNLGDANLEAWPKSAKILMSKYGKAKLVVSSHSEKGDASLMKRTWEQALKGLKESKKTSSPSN
Chain of Metallo-beta-lactamase type 2 (Aeromonas hydrophila) (P26918 whole entry): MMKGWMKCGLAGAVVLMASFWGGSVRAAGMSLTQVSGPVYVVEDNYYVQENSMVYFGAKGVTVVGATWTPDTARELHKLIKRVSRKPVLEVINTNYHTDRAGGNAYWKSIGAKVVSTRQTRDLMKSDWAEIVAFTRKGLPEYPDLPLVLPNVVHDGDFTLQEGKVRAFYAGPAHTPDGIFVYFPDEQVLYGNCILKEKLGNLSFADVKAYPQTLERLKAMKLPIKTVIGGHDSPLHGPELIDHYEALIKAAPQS

Structure (SMILES)	inhibition (Fluoribacter gormanii [2]) [%]	Activity [7] [%]	Activity (Fluoribacter gormanii [8]) [%]	Activity (Bacillus cereus [9]) [%]	Activity [10] [%]	Activity [11] [%]	further results
O=C(NO)c1ccccc1O	45	–	–	–	–	–	–
O=C(O)CCC(=O)NO	< 10	–	–	–	–	–	inhibition [3]: < 10%; inhibition [4]: < 10%; inhibition [5]: < 10%; inhibition (Bacillus cereus [6]): < 10%
O=C(NO)c1cc(O)cc(C(=O)Nc2ccccc2)c1	58	103	42	82	92	90	–
CCN(CC)C(=O)c1cc(O)cc(C(=O)NO)c1	34	93	66	101	85	90	–
O=C(NO)c1cc(O)cc(O)c1	–	–	–	–	–	–	Ki [1]: 13.3 µM
O=C(NO)c1ccccc1	55	–	–	–	–	–	Activity [3]: inactive; Activity [4]: inactive; Activity [5]: inactive; Activity (Bacillus cereus [6]): inactive
O=C(NO)c1ccc(O)cc1	53	–	–	–	–	–	–
O=C(O)c1cc(O)cc(C(=O)c2ccc(O)cc2)c1	–	107	67	86	100	83	–
O=C(O)c1cc(O)cc(C(=O)NO)c1	–	97	92	93	67	79	–

Continued, in another order:

inhibition (Fluoribacter gormanii [2]) [%]	Activity [7] [%]	Activity (Fluoribacter gormanii [8]) [%]	Activity (Bacillus cereus [9]) [%]	Activity [10] [%]	Activity [11] [%]	Structure (SMILES)	further results
64	–	–	–	–	–	O=C(NO)c1cccc(O)c1	Ki [1]: 17.9 µM
< 10	–	–	–	–	–	O=C(O)c1cccc(C(=O)NO)c1	inhibition [3]: < 10%; inhibition [4]: < 10%; inhibition [5]: < 10%; inhibition (Bacillus cereus [6]): < 10%
–	102	15	91	83	84	O=C(NO)c1cc(O)cc(C(=O)c2ccc(O)cc2)c1	–
54	95	46	103	81	81	O=C(NO)c1cc(O)cc(C(=O)NCc2ccccc2)c1	–
53	96	47	103	93	92	CNC(=O)c1cc(O)cc(C(=O)NO)c1	–
36	92	64	100	85	86	O=C(NO)c1cc(O)cc(C(=O)N2CCCC2)c1	–
